The test system of assay [1] is Nox1. Nature of the assay: Nox1 immunostaining in rat SN after striatal 6-OHDA. It counts as in vivo. How it is done:
The experiments were carried out on rats, in accordance with the NIH Guide for the Care and Use of Laboratory Animals. All procedures were approved by the local Animal Care and Use Committee. Female Sprague Dawley (SD) rats (Charles River; 8-weeks-old at the time of the beginning of AAV expression or 6-OHDA treatment, 2 or 3 per cage) were maintained in a temperature/humidity-controlled environment under a 12 h light/dark cycle with free access to food and water. All rats were respectively allocated into […], Nox1 shRNA/AAV, T17N Rac1/AAV, and scramble (scb) shRNA/AAV or empty vector/AAV as control groups. […]
Free-floating sections (40 μm) were washed in 0.1 M PBS, incubated in 0.1 M PBS containing 5% normal donkey serum and 0.3% TritonX-100 for 1 h, and subsequently incubated overnight with primary antibodies (TH, 1:2,000; Nox1, 1:200; GFAP, 1:500; CD11b, 1:200) in 2% normal donkey serum in PBS at 4° C. and incubated in a 1:200 dilution of AlexaFluor conjugated donkey anti-rabbit (546) or donkey anti-mouse (488) antibodies for 1 h at room temperature, washed with PBS, incubated in TOTO-3 (1:1,000) in 0.1 M PBS for 5 min, and then mounted sequentially in glass slides using Vectashield. Mounted slices were evaluated for fluorescence under settings for 546, 488, and 660 nm emissions on a confocal microscope (Leica TCS SP5).

For assay [2], the system named is differentiated human dopaminergic cells (ReNcell VM). Nature of the assay: α-Synuclein and Nox1 levels in differentiated ReNcell VM human dopaminergic neurons exposed to PQ. It counts as cell-based. From the text:
For the in vitro experiments on human dopaminergic neurons, human mesencephalic neuronal progenitor cell line available from Millipore (catalog number SCC008) was used. The specialty of these cells is that they are isolated from fetal human ventral mesencephalic region and subsequently immortalized by introduction of v-myc. The cells can readily differentiate into dopaminergic neurons upon withdrawal of growth factors (Millipore). The culture method was followed as indicated by the company with little modifications. Briefly, the cells were allowed to grow on laminin-coated (20 μg/ml) dishes in DMEM/F12-containing medium with B27 supplement, glutamax, heparin (10 U/ml), and gentamicin (50 μg/ml). This medium is called maintenance medium. Cell division was allowed by addition of the two growth factors in the medium viz., basic fibroblast growth factor (bFGF) and epidermal growth factor (EGF), both at a concentration of 20 ng/ml. […]
After each respective treatment, cells were fixed in 4% paraformaldehyde (PFA) for 20 min and permeabilized with 0.1% Triton X-100 in PBS for 10 min. […] For quantification of Flag^+ and α-synuclein^+ cells, >30 different fields per coverslip were analyzed on a Nikon inverted fluorescent microscope under a 20× and 40× magnification.

The subject of assay [3] is α-synuclein. Nature of the assay: α-Synuclein protein levels (immunoblot) in N27 cells exposed to PQ. Format: cell-based, rat. How it is done:
The N27 cells were grown in RPMI 1640 medium containing 10% fetal bovine serum (FBS), 100 U penicillin, and 50 μg/ml streptomycin, in a humidified atmosphere of 5% CO2 at 37° C. N27 cultures were prepared for experiments by plating the cells on polystyrene tissue culture dishes at a density of 0.5×10^5 cells/well in 24-well culture plates with glass coverslip and at 1.5×10^5 cells/well in 6-well culture plates.
For Western blot, brain tissues were lysed on ice in radioimmunoprecipitation assay buffer containing 50 mMTris/HCl, pH 8.0, 150 mM NaCl, 2 mM sodium orthovanadate, 1% Nonidet-P40 (NP-40), 0.5% sodium deoxycholate, and 0.1% SDS, containing 1% of a protease inhibitor mixture (AEBSF, pepstatinA, E-64, bestatin, leupeptin, and aprotinin). The soluble fraction was obtained and equal amounts of cell lysate protein were loaded in each lane of a 12% SDS-PAGE or 4/10% to 20% polyacrylamide gel. After electrophoresis and transfer onto a polyvinylidene difluoride (PVDF) membrane, specific protein bands were detected using appropriate primary antibodies (rabbit anti-Nox1, rabbit anti-α-synuclein, mouse anti-Ubiquitin, mouse anti-tyrosine hydroxylase (TH), and mouse anti-β-actin) and secondary antibodies conjugated to alkaline phosphatase or […] peroxidase (anti-rabbit or anti-mouse) followed by Enhanced Chemifluorescence (ECF) detection or Enhanced Chemiluminescence (ECL).

The source of these data is patent US9394544B2, “Ameliorating oxidative stress in neurodegenerative disease via Nox1 targeting” (University of Central Florida Research Foundation, Inc., priority 2013, dated 2016).

Each structure is given as a SMILES string.

On to `NCCc1cc(O)c(O)cc1O` [6-OHDA, 6-hydroxydopamine], for which, in assay [1] (3 days after striatal injection), the “Nox1 expression in the substantia nigra vs vehicle” value is on record as “significant increase”. Besides, the “TH-positive neurons showing Nox1 nuclear staining” value in assay [1] (rat SN after 6-OHDA administration) is listed as “About 75%”.

Turning to `C[n+]1ccc(-c2cc[n+](C)cc2)cc1` [PQ, paraquat], the “Nox1 level (immunocytochemistry, Western blot)” value in assay [2] (8 h PQ) is given as “highly elevated”. In addition, the α-synuclein level result in assay [2] (PQ 800 or 1000 μM, 8 and 24 h) was “increases over time”. In addition, the “increase of α-synuclein protein levels” value in assay [3] (800 μM, 8 h) was 55%; in assay [3] (800 μM, 24 h), 61%; in assay [3] (1000 μM, 8 h), 60%; in assay [3] (1000 μM, 24 h), 27%.
